Tested on: MV-4-11 cells
Assay: Gene expression microarray analysis (Affymetrix PrimeView) and GSEA
Type: cell-based, human
Set-up: RFU PODN (11730768_x_at) / Fold change /veh PODN (11730768_x_at) / RFU LINC00158 (11744669_a_at) / Fold change /veh LINC00158 (11744669_a_at) / RFU DUSP10 (11751237_a_at) / Fold change /veh DUSP10 (11751237_a_at) / RFU ID3 (11757404_x_at) / Fold change /veh ID3 (11757404_x_at) / RFU PLEKHG5 (11737974_s_at) / Fold change /veh PLEKHG5 (11737974_s_at) / RFU LRRC4B (11730491_at) / Fold change /veh LRRC4B (11730491_at) / RFU GIMAP4 (11747438_a_at) / Fold change /veh GIMAP4 (11747438_a_at) / RFU KRT8 (11758183_x_at) / Fold change /veh KRT8 (11758183_x_at) / RFU CNN1 (11734310_a_at) / Fold change /veh CNN1 (11734310_a_at) / RFU VPS37D (11726825_at) / Fold change /veh VPS37D (11726825_at) / RFU C10orf10 (11716522_x_at) / Fold change /veh C10orf10 (11716522_x_at) / RFU KIR2DL2 /// KIR2DL4 /// KIR2DL5A /// KIR2DL5B /// KIR2DS1 /// KIR2DS2 /// KIR2DS3 /// KIR2DS4 /// KIR3DL3 /// KIR3DL3 /// KIR3DS1 (11738374_at) / Fold change /veh KIR2DL2 /// KIR2DL4 /// KIR2DL5A /// KIR2DL5B /// KIR2DS1 /// KIR2DS2 /// KIR2DS3 /// KIR2DS4 /// KIR3DL3 /// KIR3DL3 /// KIR3DS1 (11738374_at) / RFU C1QL1 (11718748_at) / Fold change /veh C1QL1 (11718748_at) / RFU TMPRSS4 (11747572_a_at) / Fold change /veh TMPRSS4 (11747572_a_at) / RFU HAMP (11756126_x_at) / Fold change /veh HAMP (11756126_x_at) / RFU RNFT2 (11725882_a_at) / Fold change /veh RNFT2 (11725882_a_at) / RFU NR4A2 (11747474_a_at) / Fold change /veh NR4A2 (11747474_a_at) / RFU ABCC12 (11746883_a_at) / Fold change /veh ABCC12 (11746883_a_at) / RFU TMEM136 (11760407_x_at) / Fold change /veh TMEM136 (11760407_x_at) / RFU CLDN22 /// WWC2 (11732394_at) / Fold change /veh CLDN22 /// WWC2 (11732394_at) / RFU HLA-DPB1 (11760878_x_at) / Fold change /veh HLA-DPB1 (11760878_x_at) / RFU SPINT1 (11716480_a_at) / Fold change /veh SPINT1 (11716480_a_at) / RFU GAP43 (11754022_s_at) / Fold change /veh GAP43 (11754022_s_at) / RFU A4GNT (11735810_at) / Fold change /veh A4GNT (11735810_at) / RFU PRB3 (11715151_x_at) / Fold change /veh PRB3 (11715151_x_at) / RFU TUBB4B (11761932_at) / Fold change /veh TUBB4B (11761932_at) / RFU CAPN14 (11732068_a_at) / Fold change /veh CAPN14 (11732068_a_at) / RFU TMCC2 (11721928_a_at) / Fold change /veh TMCC2 (11721928_a_at) / RFU IRGQ (11745062_a_at) / Fold change /veh IRGQ (11745062_a_at) / RFU FAM174B (11720279_a_at) / Fold change /veh FAM174B (11720279_a_at) / RFU TMPRSS4 (11748680_a_at) / Fold change /veh TMPRSS4 (11748680_a_at) / RFU FAM212B (11763350_a_at) / Fold change /veh FAM212B (11763350_a_at) / RFU PLEKHG5 (11743358_a_at) / Fold change /veh PLEKHG5 (11743358_a_at) / RFU ZSCAN30 (11745921_a_at) / Fold change /veh ZSCAN30 (11745921_a_at) / RFU CMKLR1 (11741424_a_at) / Fold change /veh CMKLR1 (11741424_a_at) / RFU LOC101060620 /// MAPK8IP1 (11723275_at) / Fold change /veh LOC101060620 /// MAPK8IP1 (11723275_at) / RFU SPTSSB (11747773_x_at) / Fold change /veh SPTSSB (11747773_x_at) / RFU PRSS12 (11739890_at) / Fold change /veh PRSS12 (11739890_at) / RFU BIN1 (11741810_x_at) / Fold change /veh BIN1 (11741810_x_at) / RFU WNT11 (11732464_a_at) / Fold change /veh WNT11 (11732464_a_at) / RFU C10orf10 (11716521_a_at) / Fold change /veh C10orf10 (11716521_a_at) / RFU C5orf56 (11738089_at) / Fold change /veh C5orf56 (11738089_at) / RFU CYB561 (11721691_x_at) / Fold change /veh CYB561 (11721691_x_at) / RFU ANKRD19P (11752326_a_at) / Fold change /veh ANKRD19P (11752326_a_at) / RFU OR2T12 /// OR2T33 /// OR2T8 (11738714_s_at) / Fold change /veh OR2T12 /// OR2T33 /// OR2T8 (11738714_s_at) / RFU VCAN (11748164_a_at) / Fold change /veh VCAN (11748164_a_at) / RFU JSRP1 (11732532_at) / Fold change /veh JSRP1 (11732532_at) / RFU KRTAP10-11 (11738290_x_at) / Fold change /veh KRTAP10-11 (11738290_x_at) / RFU MYO3A (11730013_a_at) / Fold change /veh MYO3A (11730013_a_at) / RFU EBF3 (11725865_a_at) / Fold change /veh EBF3 (11725865_a_at) / RFU CAMK2N1 (11719241_x_at) / Fold change /veh CAMK2N1 (11719241_x_at) / RFU C5orf56 (11738088_a_at) / Fold change /veh C5orf56 (11738088_a_at) / RFU OLFML3 (11715873_a_at) / Fold change /veh OLFML3 (11715873_a_at) / RFU LOC100653217 /// NTM (11731650_a_at) / Fold change /veh LOC100653217 /// NTM (11731650_a_at) / RFU MAPK11 (11762145_a_at) / Fold change /veh MAPK11 (11762145_a_at) / RFU FIZ1 (11724087_x_at) / Fold change /veh FIZ1 (11724087_x_at) / RFU OASL (11726364_x_at) / Fold change /veh OASL (11726364_x_at) / RFU SOX15 (11748057_x_at) / Fold change /veh SOX15 (11748057_x_at) / RFU CD79A (11719716_a_at) / Fold change /veh CD79A (11719716_a_at) / RFU HIST1H1D (11736915_at) / Fold change /veh HIST1H1D (11736915_at) / RFU CASKIN2 (11723855_a_at) / Fold change /veh CASKIN2 (11723855_a_at) / RFU LOC730098 (11760151_x_at) / Fold change /veh LOC730098 (11760151_x_at) / RFU OR4N2 (11742367_at) / Fold change /veh OR4N2 (11742367_at) / RFU PRRT2 (11749266_a_at) / Fold change /veh PRRT2 (11749266_a_at) / RFU SNX32 (11753110_a_at) / Fold change /veh SNX32 (11753110_a_at) / RFU CDHR5 (11726645_a_at) / Fold change /veh CDHR5 (11726645_a_at) / RFU RCAN1 (11760418_a_at) / Fold change /veh RCAN1 (11760418_a_at) / RFU FAM167A (11723789_a_at) / Fold change /veh FAM167A (11723789_a_at) / RFU FAM26E (11764081_at) / Fold change /veh FAM26E (11764081_at) / RFU ISYNA1 (11749810_s_at) / Fold change /veh ISYNA1 (11749810_s_at) / RFU ACY1 (11761880_at) / Fold change /veh ACY1 (11761880_at) / RFU 11764098_at / Fold change /veh 11764098_at / RFU SAMD14 (11745864_x_at) / Fold change /veh SAMD14 (11745864_x_at) / RFU NPB (11741838_a_at) / Fold change /veh NPB (11741838_a_at) / RFU TMPRSS6 (11731388_a_at) / Fold change /veh TMPRSS6 (11731388_a_at) / RFU KRTAP10-2 (11738614_at) / Fold change /veh KRTAP10-2 (11738614_at) / RFU ARHGAP8 /// PRR5-ARHGAP8 (11727945_x_at) / Fold change /veh ARHGAP8 /// PRR5-ARHGAP8 (11727945_x_at) / RFU KRTAP5-7 /// NADSYN1 (11734609_at) / Fold change /veh KRTAP5-7 /// NADSYN1 (11734609_at) / RFU RASL12 (11751679_a_at) / Fold change /veh RASL12 (11751679_a_at) / RFU CDKN2B (11736163_a_at) / Fold change /veh CDKN2B (11736163_a_at) / RFU PRF1 (11729649_at) / Fold change /veh PRF1 (11729649_at) / RFU, ZNF638 /// ZNF638-IT1 / Fold change vs veh, ZNF638 /// ZNF638-IT1 / RFU, PANK3 / Fold change vs veh, PANK3 / RFU, SH3YL1 / Fold change vs veh, SH3YL1 / RFU, ZEB2 / Fold change vs veh, ZEB2 / RFU, NRIP1 / Fold change vs veh, NRIP1 / RFU, PTTG1IP / Fold change vs veh, PTTG1IP / RFU, CAPN2 / Fold change vs veh, CAPN2 / RFU, MED14 / Fold change vs veh, MED14 / RFU, SNORA58 / Fold change vs veh, SNORA58 / RFU, C1orf63 / Fold change vs veh, C1orf63 / RFU, LRRFIP1 / Fold change vs veh, LRRFIP1 / RFU, NDUFAF7 / Fold change vs veh, NDUFAF7 / RFU, SLC12A2 / Fold change vs veh, SLC12A2 / RFU, IBTK / Fold change vs veh, IBTK / RFU, ESF1 / Fold change vs veh, ESF1 / Fold change vs veh, TMEM50B / RFU, TAOK1 / Fold change vs veh, TAOK1 / RFU, ACBD3 / Fold change vs veh, ACBD3 / RFU, TMA16 / Fold change vs veh, TMA16 / RFU, RWDD3 / Fold change vs veh, RWDD3 / RFU, BCAT1 / Fold change vs veh, BCAT1 / RFU, EDEM3 / Fold change vs veh, EDEM3 / RFU, TMEM33 / Fold change vs veh, TMEM33 / RFU, WDR75 / Fold change vs veh, WDR75 / RFU, AHCTF1 / Fold change vs veh, AHCTF1 / RFU, TFRC / Fold change vs veh, TFRC / RFU, ZDHHC17 / Fold change vs veh, ZDHHC17 / RFU, NOM1 / Fold change vs veh, NOM1 / RFU, ARL8B / Fold change vs veh, ARL8B / RFU, ZBTB11 / Fold change vs veh, ZBTB11 / RFU, TAMM41 / Fold change vs veh, TAMM41 / RFU, KIAA1704 /// LOC100996395 / Fold change vs veh, KIAA1704 /// LOC100996395 / RFU, ING1 / Fold change vs veh, ING1 / RFU, TRMT61B / Fold change vs veh, TRMT61B / RFU, FUBP3 / Fold change vs veh, FUBP3 / RFU, TP53 / Fold change vs veh, TP53 / RFU, TNKS2 / Fold change vs veh, TNKS2 / RFU, ZFP14 / Fold change vs veh, ZFP14 / RFU, ACTR2 / Fold change vs veh, ACTR2 / RFU, PPP3R1 / Fold change vs veh, PPP3R1 / RFU, PIK3R1 / Fold change vs veh, PIK3R1 / RFU, HNRNPA1 / Fold change vs veh, HNRNPA1 / RFU, RNF170 / Fold change vs veh, RNF170 / RFU, ZNF28 / Fold change vs veh, ZNF28 / RFU, RNGTT / Fold change vs veh, RNGTT / RFU, OGT / Fold change vs veh, OGT / RFU, BRD1 / Fold change vs veh, BRD1 / RFU, MARS / Fold change vs veh, MARS / RFU, ZNF655 / Fold change vs veh, ZNF655 / RFU, FAHD1 / Fold change vs veh, FAHD1 / RFU, BDP1 / Fold change vs veh, BDP1 / RFU, LRRCC1 / Fold change vs veh, LRRCC1 / RFU, ARID1A / Fold change vs veh, ARID1A / RFU, ZNF146 / Fold change vs veh, ZNF146 / RFU, ZNF330 / Fold change vs veh, ZNF330 / RFU, GPN3 / Fold change vs veh, GPN3 / RFU, C9orf123 / Fold change vs veh, C9orf123 / RFU, N4BP2L2 / Fold change vs veh, N4BP2L2 / RFU, ARFIP1 / Fold change vs veh, ARFIP1 / RFU, FAM179B / Fold change vs veh, FAM179B / RFU, BCL10 / Fold change vs veh, BCL10 / RFU, UHRF1BP1L / Fold change vs veh, UHRF1BP1L / RFU, BET1 / Fold change vs veh, BET1 / RFU, CNOT2 / Fold change vs veh, CNOT2 / RFU, ZNF268 / Fold change vs veh, ZNF268 / Fold change vs veh, ZNF507 / RFU, DGCR2 / Fold change vs veh, DGCR2 / RFU, WDSUB1 / Fold change vs veh, WDSUB1 / Fold change vs veh, HSP90B1 /// MIR3652 / RFU, ADSS / Fold change vs veh, ADSS / RFU, GK / Fold change vs veh, GK / RFU, ZNF148 / Fold change vs veh, ZNF148 / RFU, TAF9 / Fold change vs veh, TAF9 / RFU, SLC1A5 / Fold change vs veh, SLC1A5 / RFU, SLMO2 / Fold change vs veh, SLMO2 / RFU, ABCC4 / Fold change vs veh, ABCC4 / RFU, LOC101060439 /// RAP1B / Fold change vs veh, LOC101060439 /// RAP1B / RFU, RFX7 / Fold change vs veh, RFX7 / RFU, GTPBP10 / Fold change vs veh, GTPBP10 / RFU, CNEP1R1 / Fold change vs veh, CNEP1R1 / RFU, BIVM-ERCC5 /// ERCC5 / Fold change vs veh, BIVM-ERCC5 /// ERCC5 / RFU, ILF3 / Fold change vs veh, ILF3 / RFU 11762660_at / Fold change /veh 11762660_at / RFU VCAN (11757783_s_at) / Fold change /veh VCAN (11757783_s_at) / RFU DDX43 (11728927_at) / Fold change /veh DDX43 (11728927_at) / RFU KRT8 (11758188_x_at) / Fold change /veh KRT8 (11758188_x_at) / RFU NKD1 (11759106_at) / Fold change /veh NKD1 (11759106_at) / RFU SRD5A1 (11742802_a_at) / Fold change /veh SRD5A1 (11742802_a_at) / RFU TPSAB1 /// TPSB2 (11721975_s_at) / Fold change /veh TPSAB1 /// TPSB2 (11721975_s_at) / RFU GSTM3 (11746129_a_at) / Fold change /veh GSTM3 (11746129_a_at) / RFU IL23R (11737362_x_at) / Fold change /veh IL23R (11737362_x_at) / RFU TMEM51 (11727254_a_at) / Fold change /veh TMEM51 (11727254_a_at) / RFU PIWIL2 (11732686_x_at) / Fold change /veh PIWIL2 (11732686_x_at) / RFU ORM1 (11744905_x_at) / Fold change /veh ORM1 (11744905_x_at) / RFU CCDC152 (11743942_at) / Fold change /veh CCDC152 (11743942_at) / RFU ECM1 (11717891_a_at) / Fold change /veh ECM1 (11717891_a_at) / RFU IL23R (11748794_a_at) / Fold change /veh IL23R (11748794_a_at) / RFU TNFAIP8L3 (11732012_x_at) / Fold change /veh TNFAIP8L3 (11732012_x_at) / RFU MBOAT4 (11741988_at) / Fold change /veh MBOAT4 (11741988_at) / RFU 11764193_at / Fold change /veh 11764193_at / RFU TMEM53 (11763286_at) / Fold change /veh TMEM53 (11763286_at) / RFU MAGEB2 (11727129_at) / Fold change /veh MAGEB2 (11727129_at) / RFU TMEM200A (11744735_a_at) / Fold change /veh TMEM200A (11744735_a_at) / RFU CCDC152 (11751479_a_at) / Fold change /veh CCDC152 (11751479_a_at) / RFU FAM211A (11726209_a_at) / Fold change /veh FAM211A (11726209_a_at) / RFU RGS16 (11746705_a_at) / Fold change /veh RGS16 (11746705_a_at) / RFU VCAN (11755009_s_at) / Fold change /veh VCAN (11755009_s_at) / RFU RHOB (11743442_s_at) / Fold change /veh RHOB (11743442_s_at) / RFU RGS16 (11720943_a_at) / Fold change /veh RGS16 (11720943_a_at) / RFU RGS16 (11720944_at) / Fold change /veh RGS16 (11720944_at) / RFU, VPS4B / Fold change vs veh, VPS4B / RFU, CREB1 / Fold change vs veh, CREB1 / RFU, DNAJC13 / Fold change vs veh, DNAJC13 / RFU, GNAQ / Fold change vs veh, GNAQ / RFU, CDK5R1 / Fold change vs veh, CDK5R1 / RFU, ZRANB3 / Fold change vs veh, ZRANB3 / RFU, CUL4A / Fold change vs veh, CUL4A / RFU, CCNY / Fold change vs veh, CCNY / RFU, UFL1 / Fold change vs veh, UFL1 / RFU, COG3 / Fold change vs veh, COG3 / RFU, DIAPH2 / Fold change vs veh, DIAPH2 / RFU, SKA2 / Fold change vs veh, SKA2 / RFU, AFF3 / Fold change vs veh, AFF3 / RFU, LMF1 / Fold change vs veh, LMF1 / RFU, IPO11 / Fold change vs veh, IPO11 / RFU, DFFB / Fold change vs veh, DFFB / RFU, FOXP1 / Fold change vs veh, FOXP1 / RFU, CARD8 / Fold change vs veh, CARD8 / RFU, STRN3 / Fold change vs veh, STRN3 / RFU, ADK / Fold change vs veh, ADK / RFU, RASSF2 / Fold change vs veh, RASSF2 / RFU, WIPF1 / Fold change vs veh, WIPF1 / RFU, LARP1B / Fold change vs veh, LARP1B / RFU, RASA1 / Fold change vs veh, RASA1 / RFU, RB1 / Fold change vs veh, RB1 / RFU, PPFIA1 / Fold change vs veh, PPFIA1 / RFU, MAT2A / Fold change vs veh, MAT2A / RFU, CCT5 / Fold change vs veh, CCT5 / RFU, WDR92 / Fold change vs veh, WDR92 / RFU, CUX1 / Fold change vs veh, CUX1 / RFU, TTC7A / Fold change vs veh, TTC7A / RFU, TMEM135 / Fold change vs veh, TMEM135 / RFU, DEPTOR / Fold change vs veh, DEPTOR / RFU, CPM / Fold change vs veh, CPM / RFU, DNAJB6 / Fold change vs veh, DNAJB6 / RFU, CACNA2D3 / Fold change vs veh, CACNA2D3 / RFU, DTX4 / Fold change vs veh, DTX4 / RFU, TFCP2 / Fold change vs veh, TFCP2 / RFU, GMCL1 /// GMCL1P1 / Fold change vs veh, GMCL1 /// GMCL1P1 / RFU, AEBP2 / Fold change vs veh, AEBP2 / RFU, SNHG1 /// SNORD22 /// SNORD25 /// SNORD26 /// SNORD27 /// SNORD28 /// SNORD29 /// SNORD31 / Fold change vs veh, SNHG1 /// SNORD22 /// SNORD25 /// SNORD26 /// SNORD27 /// SNORD28 /// SNORD29 /// SNORD31 / Fold change (Aza/veh), C12orf56 (ProbeSet 11735607_a_at) / Fold change (ACY-1035/veh), C12orf56 (ProbeSet 11735607_a_at) / Fold change (Aza/veh), FGFR1OP (ProbeSet 11751329_s_at) / Fold change (ACY-1035/veh), FGFR1OP (ProbeSet 11751329_s_at) / Fold change (Aza/veh), VPS36 (ProbeSet 11739960_a_at) / Fold change (ACY-1035/veh), VPS36 (ProbeSet 11739960_a_at) / RFU SYPL1 (11715823_x_at) / Fold change /veh SYPL1 (11715823_x_at) / RFU IGFBP7 (11715501_s_at) / Fold change /veh IGFBP7 (11715501_s_at) / RFU REEP3 (11722064_at) / Fold change /veh REEP3 (11722064_at) / RFU IGLL1 (11728026_x_at) / Fold change /veh IGLL1 (11728026_x_at): dose or concentration left out as unconfirmed
Settings: MV-4-11 cells, 48 hours

Nc1ccc(-c2cccs2)cc1NC(=O)c1ccc2c(c1)cc(C1CC1)n2CCN1CCOCC1 [ACY-1035]
RFU TNFAIP8L3 (11732012_x_at): 8.37 RFU

Reference: PMC5218480 (PLoS ONE, 2017)
